Results as given in patent publication US9328374B2, “Selective culture medium and method for detecting carbapenem-resistant bacteria in a test sample” (Institut National de la Sante et de la Recherche Medicale …, priority 2011, dated 2016).
Like-named read-outs stand apart in the source and are kept apart here.

Tested on: K. pneumoniae
Assay: MIC of imipenem, ertapenem and meropenem
Assay type: cell-based, Klebsiella pneumoniae
Settings: Klebsiella pneumoniae, read-out: MIC

`C[C@@H](O)[C@H]1C(=O)N2C(C(=O)O)=C(S[C@@H]3CN[C@H](C(=O)Nc4cccc(C(=O)O)c4)C3)[C@H](C)[C@H]12` [ETP, ertapenem] showed an MIC (K. pneumoniae 1 OMA (NDM-1 + CTX-M-15 + OXA-1 + OXA-9)) greater than 32 µg/mL, an MIC (K. pneumoniae 2 OLA (NDM-1 + OXA-1)) of 6 µg/mL and an MIC (K. pneumoniae 7 AFR (NDM-1 + OXA-1 + CTX-M-15 + CMY-6 + TEM-1)) greater than 32 µg/mL. It also gave an MIC (K. pneumoniae 7AFR, NDM-1 + TEM-1 + CTX-M-15 + CMY-6 + OXA-1) greater than 32 µg/mL, an MIC (K. pneumoniae 0227, SHV-1, non-carbapenemase producer) of 0.008 µg/mL and an MIC (K. pneumoniae 588, KPC-2 + TEM-1 + SHV-11 + OXA-9) of 32 µg/mL. For the same molecule, the MIC (K. pneumoniae 1022, SHV-2a + SHV-28, non-carbapenemase producer) was 0.016 µg/mL, the MIC (K. pneumoniae 1025 (CTX-M-14 + TEM-1 + SHV-11)) was 0.016 µg/mL and the MIC (K. pneumoniae 1025, CTX-M-14 + TEM-1 + SHV-11, non-carbapenemase producer) was 0.016 µg/mL. The MIC (K. pneumoniae 2303, KPC-2 + SHV-11) was greater than 32 µg/mL, the MIC (K. pneumoniae 6642 GEN (NDM-1 + CTX-M-15 + OXA-1 + OXA-10)) was 16 µg/mL and the MIC (K. pneumoniae 6642 GEN, NDM-1 + CTX-M-15 + OXA-1 + OXA-10) was 16 µg/mL. For the same molecule, the MIC (K. pneumoniae 6759 GEN (NDM-1 + CTX-M-15 + OXA-1 + OXA-9 + OXA-10 + CMY16)) was greater than 32 µg/mL, the MIC (K. pneumoniae 6759 GEN, NDM-1 + CTX-M-15 + CMY-16 + OXA-1 + OXA-9 + OXA-10) was greater than 32 µg/mL and the MIC (K. pneumoniae 7725 (SHV-1)) was 0.006 µg/mL. It also gave an MIC (K. pneumoniae 7725, SHV-1, non-carbapenemase producer) of 0.006 µg/mL, an MIC (K. pneumoniae 10112, CTX-M-15 + TEM-1 + SHV-11, non-carbapenemase producer) of 0.016 µg/mL and an MIC (K. pneumoniae 0404020, VIM-1+ SHV-5) greater than 32 µg/mL. The MIC (K. pneumoniae 0404024, VIM-1) was greater than 32 µg/mL, the MIC (K. pneumoniae 0511135, VIM-1+ SHV-12) was greater than 32 µg/mL and the MIC (K. pneumoniae 648236 (SHV-2a)) was 2 µg/mL. For the same molecule, the MIC (K. pneumoniae 648236, SHV-2a, non-carbapenemase producer, porin deficiency) was 2 µg/mL, the MIC (K. pneumoniae 0709121, IMP-1) was 3 µg/mL and the MIC (K. pneumoniae 0709124, IMP-1 + TEM-15) was 3 µg/mL. The MIC (K. pneumoniae 0709125, IMP-1 + TEM-1 + SHV-12) was 4 µg/mL, the MIC (K. pneumoniae 0709127, IMP-1 + TEM-1) was 4 µg/mL and the MIC (K. pneumoniae A28006, KPC-2 + TEM-1 + CTX-M-2 + SHV-11) was 24 µg/mL. It also gave an MIC (K. pneumoniae A33504, KPC-2 + TEM-1 + SHV-11 + CTX-M-2 + OXA-9) greater than 32 µg/mL, an MIC (K. pneumoniae AEL, OXA-48 + CTX-M-15 + SHV-28 + OXA-1) of 6 µg/mL and an MIC (K. pneumoniae ALE (CTX-M-15 + SHV-1)) greater than 32 µg/mL. It also gave an MIC (K. pneumoniae ALE, CTX-M-15 + SHV-1, non-carbapenemase producer, porin deficiency) greater than 32 µg/mL, an MIC (K. pneumoniae AMS (OXA-48 + TEM-1 + CTX-M-15 + OXA-1)) of 2 µg/mL and an MIC (K. pneumoniae AMS, OXA-48 + TEM-1 + CTX-M-15 + OXA-1) of 2 µg/mL. For the same molecule, the MIC (K. pneumoniae BAJ (OXA-48 + TEM-1 + CTX-M-15 + SHV-28)) was 1.5 µg/mL, the MIC (K. pneumoniae BAJ, OXA-48 + TEM-1 + CTX-M-15 + SHV-28) was 1.5 µg/mL and the MIC (K. pneumoniae BED (CTX-M-15 + TEM-1 + SHV-1; Table 8: SHV-11)) was greater than 32 µg/mL. It also gave an MIC (K. pneumoniae BED, CTX-M-15 + TEM-1 + SHV-11, non-carbapenemase producer, porin deficiency) greater than 32 µg/mL, an MIC (K. pneumoniae BEL (OXA-48)) of 4 µg/mL and an MIC (K. pneumoniae BEL, OXA-48) of 4 µg/mL. It also gave an MIC (K. pneumoniae BEN (OXA-48 + TEM-1 + CTX-M-15 + SHV-28)) of 1 µg/mL, an MIC (K. pneumoniae BEN, OXA-48 + TEM-1 + CTX-M-15 + SHV-28) of 1 µg/mL and an MIC (K. pneumoniae BER (TEM-1 + SHV-28)) of 4 µg/mL. The MIC (K. pneumoniae BER, SHV-28 + TEM-1, non-carbapenemase producer, porin deficiency) was 4 µg/mL, the MIC (K. pneumoniae BEY (OXA-48 + CTX-M-15 + TEM-1)) was 0.38 µg/mL and the MIC (K. pneumoniae BEY, OXA-48 + TEM-1 + CTX-M-15) was 0.38 µg/mL. The MIC (K. pneumoniae BIC (OXA-48)) was 2 µg/mL, the MIC (K. pneumoniae BIC, OXA-48) was 2 µg/mL and the MIC (K. pneumoniae BOU, OXA-48) was 0.5 µg/mL. For the same molecule, the MIC (K. pneumoniae CHA (OXA-48 + TEM-1)) was 1 µg/mL, the MIC (K. pneumoniae CHA, OXA-48 + TEM-1) was 1 µg/mL and the MIC (K. pneumoniae COL (KPC-2 + TEM-1 + SHV-1 + CTX-M-15)) was 4 µg/mL. It also gave an MIC (K. pneumoniae COO (CTX-M-15 + SHV28)) greater than 32 µg/mL, an MIC (K. pneumoniae COO, CTX-M-15 + SHV-28, non-carbapenemase producer, porin deficiency) greater than 32 µg/mL and an MIC (K. pneumoniae DAL (OXA-48 + CTX-M-15 + TEM-1)) of 2 µg/mL. It also gave an MIC (K. pneumoniae DAL, OXA-48 + TEM-1 + CTX-M-15) of 2 µg/mL, an MIC (K. pneumoniae DIA, OXA-48 + TEM-1b + CTX-M-15 + SHV-11 + OXA-1) greater than 32 µg/mL and an MIC (K. pneumoniae DUW, OXA-48 + TEM-1 + CTX-M-15 + SHV-28) of 32 µg/mL. For the same molecule, the MIC (K. pneumoniae EGY (OXA-48 + CTX-M-15)) was 3 µg/mL, the MIC (K. pneumoniae EGY, OXA-48 + CTX-M-15) was 3 µg/mL and the MIC (K. pneumoniae ELK (OXA-48 + TEM-1 + CTX-M-15 + SHV-11)) was 3 µg/mL. The MIC (K. pneumoniae ELK, OXA-48 + TEM-1 + CTX-M-15 + SHV-11) was 3 µg/mL, the MIC (K. pneumoniae ENN, VIM-1+ SHV-5) was 1.5 µg/mL and the MIC (K. pneumoniae FOS (CTX-M-15 + TEM-1 + SHV-11)) was greater than 32 µg/mL. For the same molecule, the MIC (K. pneumoniae FOS, CTX-M-15 + TEM-1 + SHV-11, non-carbapenemase producer, porin deficiency) was greater than 32 µg/mL, the MIC (K. pneumoniae GES, KPC-2 + TEM-1 + SHV-11) was 12 µg/mL and the MIC (K. pneumoniae HOL (OXA-181 + CTX-M-15)) was 4 µg/mL. It also gave an MIC (K. pneumoniae HOL, OXA-181 + CTX-M-15) of 4 µg/mL, an MIC (K. pneumoniae HPA, OXA-48 + TEM-1 + CTX-M-15 + OXA-1) greater than 32 µg/mL and an MIC (K. pneumoniae IND (NDM-1 + OXA-1 + CTX-M-15)) of 8 µg/mL. The MIC (K. pneumoniae KAM, KPC-3 + TEM-1 + SHV-11) was 12 µg/mL, the MIC (K. pneumoniae KDH (DHA-2)) was 0.5 µg/mL and the MIC (K. pneumoniae KI2, NDM-1 + CTX-M-15 + OXA-1) was 8 µg/mL. For the same molecule, the MIC (K. pneumoniae KIE, NDM-1 + SHV-38 + CMY-16 + OXA-10) was 2 µg/mL, the MIC (K. pneumoniae KPN (CTX-M-15)) was 0.12 µg/mL and the MIC (K. pneumoniae KPN, CTX-M-15, non-carbapenemase producer) was 0.012 µg/mL. The MIC (K. pneumoniae LEG (CTX-M-15 + TEM-1 + SHV-12)) was greater than 32 µg/mL and the MIC (K. pneumoniae LEG, CTX-M-15 + TEM-1 + SHV-12, non-carbapenemase producer, porin deficiency) was greater than 32 µg/mL.
